According to patent publication US20180271869A1, “TREATMENT OF ANXIETY DISORDERS AND AUTISM SPECTRUM DISORDERS” (Rugen Holdings (Cayman) Limited, priority 2014, published 2018):
Entries after “also recorded” stand apart in the source; their conditions may differ.

How the values were obtained:
Sapap3 knock-out mice = assay: Novelty Phobia Test in Sapap3 knock-out mice; assay type: in vivo, mouse; conditions: for novelty phobia (number of touch bouts), dose dependence: single i.p. administration
Method: (§1) Animals. Shank3 knockout mice and Sapap3 knockout mice were purchased from Duke University. The animals were raised in a SPF environment according to AALAC guidelines. The breeding conditions and genotyping method were the same as described in J. M. Welch et al., Nature 2007; 448(7156):894-900, and in J. Peca et al., Nature 2011;472(7344):437-442. Homozygous knockout mice of 4 to 8 weeks of age were used in behavioral assays.
The test compounds were dissolved in a small volume of DMSO and diluted saline and administered intraperitoneally (i.p.) to 4 to 8 week old mice. […]
The behavioral testing apparatus was a rectangular black Plexiglas box, with no top or bottom (50 cm long, 26 cm wide and 15 cm tall). The chambers of the testing apparatus were cleaned and fresh paper chip bedding was added between tests. Behavioral tests were conducted between 10:00 am and 1:00 pm in dim light. Mice were brought to the experiment room in their home cages and administered intraperitoneally with drugs or vehicle in a volume of 10 ml/kg. […] After this habituation period, a novel object (e.g., a toy ball of 3 cm in diameter with spikes) was introduced to the center of the chamber for 5 min. For the entire 15 min that the mouse spent in the chamber, video was recorded and analyzed with AnyMaze software (purchased from Stoelting Co.). The total distance traveled during the entire 15 min and the bouts that the mice touched the novel object during the last 5 min were measured. Statistical significance between two groups was determined by t test. In all statistical measures, the criterion for significance was set at p<0.05.

human NR1/NR2A [1] = molecular target: T1, human NR1/NR2A (Homo sapiens, UniProt Q05586+Q12879); assay: NR2A antagonist activity, Fluo-4 calcium influx assay in HEK293 cells; assay type: cell-based; conditions: glutamate 100 μM and glycine 50 μM, Fluo-4 fluorescence, read-out: hNR2A IC50
T1 construct: expressed in transfected cells
T1 sequence (Q12879 23-1464, other chains not shown): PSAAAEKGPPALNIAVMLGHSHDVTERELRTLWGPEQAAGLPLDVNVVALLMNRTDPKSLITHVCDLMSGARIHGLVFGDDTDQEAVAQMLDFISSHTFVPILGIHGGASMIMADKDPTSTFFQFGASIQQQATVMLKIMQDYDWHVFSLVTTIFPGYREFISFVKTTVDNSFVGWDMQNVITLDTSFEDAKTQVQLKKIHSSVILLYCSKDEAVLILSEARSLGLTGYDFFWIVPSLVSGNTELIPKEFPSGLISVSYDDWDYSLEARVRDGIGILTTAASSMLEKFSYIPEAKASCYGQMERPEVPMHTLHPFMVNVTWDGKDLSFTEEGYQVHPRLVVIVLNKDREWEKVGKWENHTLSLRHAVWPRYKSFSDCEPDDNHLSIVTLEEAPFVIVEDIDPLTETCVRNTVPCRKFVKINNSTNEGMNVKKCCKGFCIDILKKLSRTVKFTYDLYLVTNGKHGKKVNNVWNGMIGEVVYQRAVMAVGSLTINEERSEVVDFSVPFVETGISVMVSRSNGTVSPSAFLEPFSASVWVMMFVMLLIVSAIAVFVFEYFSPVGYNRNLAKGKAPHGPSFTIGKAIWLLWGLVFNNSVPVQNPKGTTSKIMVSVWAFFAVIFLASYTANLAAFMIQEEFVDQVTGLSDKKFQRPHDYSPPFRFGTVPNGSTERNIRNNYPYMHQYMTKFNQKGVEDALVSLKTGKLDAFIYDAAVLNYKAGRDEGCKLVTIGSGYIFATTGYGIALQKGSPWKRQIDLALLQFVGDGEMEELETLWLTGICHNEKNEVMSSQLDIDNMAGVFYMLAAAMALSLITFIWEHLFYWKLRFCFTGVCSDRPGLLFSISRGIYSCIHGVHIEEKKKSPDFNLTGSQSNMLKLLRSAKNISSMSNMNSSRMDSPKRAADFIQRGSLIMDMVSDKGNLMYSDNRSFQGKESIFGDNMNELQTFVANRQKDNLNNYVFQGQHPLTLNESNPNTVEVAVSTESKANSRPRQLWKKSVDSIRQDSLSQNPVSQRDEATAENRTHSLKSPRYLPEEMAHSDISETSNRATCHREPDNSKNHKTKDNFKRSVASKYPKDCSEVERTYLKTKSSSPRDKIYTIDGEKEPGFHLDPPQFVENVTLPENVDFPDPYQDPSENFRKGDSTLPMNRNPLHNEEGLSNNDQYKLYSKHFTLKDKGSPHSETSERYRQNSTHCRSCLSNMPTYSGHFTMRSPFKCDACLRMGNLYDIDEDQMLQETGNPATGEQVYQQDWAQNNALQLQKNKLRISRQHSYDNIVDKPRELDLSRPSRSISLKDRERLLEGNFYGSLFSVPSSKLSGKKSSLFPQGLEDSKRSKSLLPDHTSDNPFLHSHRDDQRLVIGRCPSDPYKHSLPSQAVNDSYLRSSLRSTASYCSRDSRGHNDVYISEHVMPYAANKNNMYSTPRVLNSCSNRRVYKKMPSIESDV
Text: (§2) HEK293 cell lines stably expressing cloned human NR1/NR2B and NR1/NR2A, respectively, were established according to standard previously described methods (Hansen et al., Comb. Chem High Throughput Screen. 11:304, 2008). Activation of the NR2A or NR2B subtype of NMDA receptor with glutamate as an agonist and glycine co-agonist on these cells results in calcium influx, which can be monitored with fluorescent indicator Fluo-4. A cell based assay has been implemented to evaluate the effect of a compound on NR2A and NR2B receptors by measuring the fluorescent changes (Hansen et al., Comb. Chem High Throughput Screen. 11:304, 2008).
HEK293 cells stably expressing NR2A or NR2B receptors were cultured at 37° C. in a humidified CO2 incubator in DMEM supplemented with 10% fetal bovine serum (FBS) (Hyclone), 10 μM MK801 (Sigma-Aldrich) and 50 μM AP-5 (Tocris). For experiments, the cells were seeded onto poly-D-lysine-coated 96-well black plates with clear bottom (Corning) at a density of ˜50,000 cells/well. After overnight culture, the growth medium was removed from the wells and the cells were incubated at 37° C. for 60 min in Hanks buffer containing 4 μM fluo-4-AM (Invitrogen) and 0.1% bovine serum albumin (BSA). After dye-loading, the cells were washed three times with Hanks buffer and incubated for 10 min at room temperature with various concentrations of test compounds prepared in Hanks buffer with 0.1% BSA. The cell plates were placed onto FDSS μCell fluorescence reader (Hamamatsu). After 20 sec reading of background fluorescence, agonist glutamate at final 100 μM and co-agonist glycine at final 50 μM were added to the cells to activate the receptor, and the resulting fluorescence changes were recorded and quantified. Based on the changes in fluorescence intensity, the pharmacological effect of test compounds were analyzed and the IC50 values derived from a non-linear least squares fitting of the concentration-dependent response to a standard logistic equation using Prism (Graphpad, Inc):
Amplitude=Max Amplitude/(1+(IC50/[antagonist])°).

human NR1/NR2B = molecular target: T2, human NR1/NR2B (Homo sapiens, UniProt Q05586+Q13224); assay: NR2B antagonist activity, Fluo-4 calcium influx assay in HEK293 cells; assay type: cell-based; conditions: glutamate 100 μM and glycine 50 μM, Fluo-4 fluorescence, read-out: hNR2B IC50
T2 construct: expressed in transfected cells
T2 sequence (Q13224 27-1484, other chains not shown): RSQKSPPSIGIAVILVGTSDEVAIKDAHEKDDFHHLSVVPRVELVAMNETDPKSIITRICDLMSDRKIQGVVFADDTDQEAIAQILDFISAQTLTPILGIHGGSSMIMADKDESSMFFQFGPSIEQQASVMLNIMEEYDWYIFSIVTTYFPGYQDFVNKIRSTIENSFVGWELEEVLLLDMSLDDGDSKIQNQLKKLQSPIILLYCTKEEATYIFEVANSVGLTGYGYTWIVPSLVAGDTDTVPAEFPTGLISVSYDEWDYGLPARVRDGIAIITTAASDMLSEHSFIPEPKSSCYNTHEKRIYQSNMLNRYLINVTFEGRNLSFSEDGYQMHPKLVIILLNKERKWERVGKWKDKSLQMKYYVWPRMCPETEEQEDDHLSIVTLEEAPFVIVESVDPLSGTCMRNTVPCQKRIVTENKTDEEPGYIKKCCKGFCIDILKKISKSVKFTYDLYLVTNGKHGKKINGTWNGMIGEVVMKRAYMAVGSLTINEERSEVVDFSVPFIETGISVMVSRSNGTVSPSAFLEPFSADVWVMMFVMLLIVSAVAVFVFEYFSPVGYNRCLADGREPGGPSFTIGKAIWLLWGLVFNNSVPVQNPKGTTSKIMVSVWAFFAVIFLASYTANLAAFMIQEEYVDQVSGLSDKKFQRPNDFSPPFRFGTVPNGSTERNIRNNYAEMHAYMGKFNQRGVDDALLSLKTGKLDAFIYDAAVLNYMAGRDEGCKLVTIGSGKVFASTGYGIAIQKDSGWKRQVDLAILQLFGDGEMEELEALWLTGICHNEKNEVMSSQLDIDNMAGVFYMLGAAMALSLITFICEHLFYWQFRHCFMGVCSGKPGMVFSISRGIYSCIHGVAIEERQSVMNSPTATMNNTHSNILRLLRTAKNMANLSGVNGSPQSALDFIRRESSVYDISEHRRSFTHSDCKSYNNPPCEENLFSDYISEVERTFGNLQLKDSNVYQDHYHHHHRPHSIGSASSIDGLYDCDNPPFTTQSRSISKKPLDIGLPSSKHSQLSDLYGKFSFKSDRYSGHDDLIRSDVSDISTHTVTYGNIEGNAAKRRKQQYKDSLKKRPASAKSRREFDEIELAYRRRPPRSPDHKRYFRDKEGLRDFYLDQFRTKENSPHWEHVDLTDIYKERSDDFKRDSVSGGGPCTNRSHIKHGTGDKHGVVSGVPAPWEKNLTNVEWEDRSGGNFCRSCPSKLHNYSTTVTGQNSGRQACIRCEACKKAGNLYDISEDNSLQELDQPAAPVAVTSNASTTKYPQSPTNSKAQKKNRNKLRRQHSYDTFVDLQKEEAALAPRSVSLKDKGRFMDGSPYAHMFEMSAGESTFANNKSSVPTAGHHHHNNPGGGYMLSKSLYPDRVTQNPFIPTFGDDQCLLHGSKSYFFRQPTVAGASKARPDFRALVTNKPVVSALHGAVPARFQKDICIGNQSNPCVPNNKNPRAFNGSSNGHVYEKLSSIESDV
Method: as §2, with “Fluo-4.” for “Fluo-4. A cell based assay has been implemented to evaluate the effect of a compound on NR2A and NR2B receptors by measuring the fluorescent changes (Hansen et al., Comb. Chem High Throughput Screen. 11:304, 2008).”
For experiments, the cells were seeded onto poly-D-lysine-coated 96-well black plates with clear bottom (Corning) at a density of ˜50,000 cells/well. After overnight culture, the growth medium was removed from the wells and the cells were incubated at 37° C. for 60 min in Hanks buffer containing 4 μM fluo-4-AM (Invitrogen) and 0.1% bovine serum albumin (BSA). After dye-loading, the cells were washed three times with Hanks buffer and incubated for 10 min at room temperature with various concentrations of test compounds prepared in Hanks buffer with 0.1% BSA. The cell plates were placed onto FDSS μCell fluorescence reader (Hamamatsu). After 20 sec reading of background fluorescence, agonist glutamate at final 100 μM and co-agonist glycine at final 50 μM were added to the cells to activate the receptor, and the resulting fluorescence changes were recorded and quantified.

human NR1/NR2A [2] = molecular target: T3, human NR1/NR2A (Homo sapiens, UniProt Q12879); conditions: from L. Mony et al., Br. J. Pharmacol. 2009; read-out: hNR2A IC50; cited from earlier work
T3 construct: expressed in transfected cells
T3 sequence (Q12879 23-1464, other chains not shown): as the sequence (Q12879 23-1464, other chains not shown) above

Shank3 knock-out mice = assay: Novelty Phobia Test in Shank3 knock-out mice; assay type: in vivo, mouse; conditions: for novelty phobia (number of touch bouts): vs vehicle, p<0.05
Method: as §1
The test compounds were dissolved in a small volume of DMSO and diluted saline and administered intraperitoneally (i.p.) to 4 to 8 week old mice. About 30-60 minutes after dosing, the mice were subjected to a behavioral test as described below.
The behavioral testing apparatus was a rectangular black Plexiglas box, with no top or bottom (50 cm long, 26 cm wide and 15 cm tall). The chambers of the testing apparatus were cleaned and fresh paper chip bedding was added between tests. Behavioral tests were conducted between 10:00 am and 1:00 pm in dim light. Mice were brought to the experiment room in their home cages and administered intraperitoneally with drugs or vehicle in a volume of 10 ml/kg. About 30 to 60 min after drug administration, the mice were placed into the chamber and allowed to free play for 10 min. After this habituation period, a novel object (e.g., a toy ball of 3 cm in diameter with spikes) was introduced to the center of the chamber for 5 min. For the entire 15 min that the mouse spent in the chamber, video was recorded and analyzed with AnyMaze software (purchased from Stoelting Co.). The total distance traveled during the entire 15 min and the bouts that the mice touched the novel object during the last 5 min were measured. Statistical significance between two groups was determined by t test. In all statistical measures, the criterion for significance was set at p<0.05.

wild-type mice = assay: Elevated Plus Maze; assay type: in vivo, mouse; conditions: for time spent in the open arms: vs vehicle
Text: The Elevated Plus Maze, which detects anxiolytic activity, follows that described by S. L. Handley and S. Mithani Naunyn. Schmied. Arch. Pharmacol. 1984, 327, 1-5. Rodents avoid open spaces (the open arms of an elevated plus-maze). Anxiolytics increase exploratory activity in the open arms, as indicated by increased time spent on the open arms and/or by increased % open-arm entries. The maze consists of 4 arms of equal length and width (14×5 cm) arranged in the form of a plus sign (+). Two opposite arms are enclosed by 12 cm high walls (closed arms). The 2 other arms have no walls (open arms). The maze is raised approximately 60 cm above the floor. A mouse was placed in the center of the plus-maze and left to explore for 5 minutes. The number of entries into the open and closed arms and the time spent on the open arms were recorded. The percentage of open arm entries (open arm entries/total arm entries×100) was calculated. Ten mice were studied per group. The test was performed blind (test substances versus vehicle). Data with the test substances were analyzed by comparing treated groups (7 groups except for the reference substance) with vehicle control using one-way ANOVA followed by post-hoc Dunnett's tests. Data with the reference substance were analyzed using unpaired Student's t tests.

wild type mice = assay: Marble Burying Test; assay type: in vivo, mouse; conditions: for number of marbles buried: vs vehicle, p<0.001
Method: The Marble Burying Test was conducted as previously described by C. L. Broekkamp et al., Eur. J. Pharmacol. 1986, 126, 223-229. Mice exposed to novel object (marbles) will bury them in the sawdust floor covering. Anxiolytics decrease the number of marbles buried at non-sedative doses. Mice were individually placed in transparent plastic cages (33×21×18 cm) with 5 cm of sawdust on the floor 25 marbles grouped in the center of the cage. The cage was covered with an inverted plastic cage. Each test cage, together with the marbles, was impregnated with mouse odor before-hand by leaving 10 mice in the cage for 15 minutes. These mice then played no further role in the experiment. The number of marbles covered by sawdust (⅔ or more) was counted at the end of a 30-minute test. Twelve mice were studied per group. The test was performed blind (test substances versus vehicle). Clobazam (8 mg/kg i.p.), administered 40 minutes before the test, was used as reference substance. Data with the test substances were analyzed by comparing treated groups with vehicle control using Kruskall-Wallis test followed by Mann-Whitney U tests. Data with the reference substance were analyzed using Mann-Whitney U tests.

[3] = Mathur et al. 2008; cited from earlier work
[4] = single dose subcutaneous, highest dose tested; Iijima et al. 2010; cited from earlier work
[5] = each test dose, single i.p., vs vehicle
[6] = 5 mg/kg i.p. once/day for 6 days, tested 30-60 min after last dose
[7] = 8 mg/kg i.p. 30 minutes before testing

Cc1ccc(COC(=O)N2CC[C@H](CNc3ncccn3)[C@H](F)C2)cc1 (racemic) [Compound C, (±)-cis-4-methylbenzyl 3-fluoro-4-[(pyrimidin-2-ylamino)methyl]piperidine-1-carboxylate]
novelty phobia (number of touch bouts) (Sapap3 knock-out mice; [5]): significantly improved | novelty phobia (number of touch bouts), dose dependence (Sapap3 knock-out mice): dose-dependently improved novelty phobia

Cc1ccc(COC(=O)N2CC[C@@H](CNc3ncccn3)[C@@H](F)C2)cc1 [(3R,4S)-4-methylbenzyl 3-fluoro-4-[(pyrimidin-2-ylamino)methyl]piperidine-1-carboxylate]
IC50 (human NR1/NR2A [1]): > 10 µM | IC50 (human NR1/NR2B): 0.018 µM

C[C@@H]([C@@H](O)c1ccc(O)cc1)N1CCC(O)(c2ccccc2)CC1 [Compound A, (+)-(1S,2S)-1-(4-hydroxyphenyl)-2-(4-hydroxy-4-phenylpiperidino)-1-propanol, reference compound]
IC50 (human NR1/NR2A [2]): ≥ 10 µM | novelty phobia (number of touch bouts) (Shank3 knock-out mice; [6]): significantly improved novelty phobia

FC(F)(F)c1ccc(C(F)(F)CN2CCC(Nc3ncnc4[nH]ncc34)CC2)cc1 [Compound B, N-(1-(2,2-difluoro-2-(4-trifluoromethyl)phenyl-ethyl)piperidin-4-yl)-1H-pyrazolo[3,4-d]pyrimidin-4-amine]
novelty phobia (number of touch bouts) (Sapap3 knock-out mice; [5]): significantly improved | novelty phobia (number of touch bouts), dose dependence (Sapap3 knock-out mice): dose-dependently improved novelty phobia | IC50 (human NR1/NR2A [1]): > 10 µM | novelty phobia (number of touch bouts) (Shank3 knock-out mice; [6]): significantly improved novelty phobia | novelty phobia (number of touch bouts) (Shank3 knock-out mice; 1 and 5 mg/kg single i.p.): significantly improved novelty phobia | novelty phobia (number of touch bouts), dose dependence (Shank3 knock-out mice; single i.p. administration 30-60 min before testing): dose-dependently improved novelty phobia

Cc1ccc(COC(=O)N2CC[C@H](CNc3ncccn3)[C@H](F)C2)cc1 [Compound D, (−)-(3S,4R)-cis-4-methylbenzyl 3-fluoro-4-[(pyrimidin-2-ylamino)methyl]-piperidine-1-carboxylate]
novelty phobia (number of touch bouts) (Sapap3 knock-out mice; 1 mg/kg i.p. 20 minutes prior to testing): improved novelty phobia | time spent in the open arms (wild-type mice; 3 and 10 mg/kg i.p. 20 minutes before the test, p<0.01/0.001): significantly different from that of vehicle | time spent in the open arms, dose dependence (wild-type mice; single i.p. dose 20 minutes before the test): maximal efficacy approaching that of the benzodiazepine control compound clobazam; also recorded: dose-dependently increased the amount of time spent | IC50 (human NR1/NR2A [1]): > 10 µM | IC50 (human NR1/NR2B): 0.011 µM | number of marbles buried (wild type mice; 1 mg/kg i.p. 20 minutes before the test): significantly different from that of vehicle | number of marbles buried, dose dependence (wild type mice; single i.p. dose 20 minutes before 30-minute test session): dose-dependently reduced the number of marbles buried

C[C@@H](CN1CCC(Cc2ccccc2)CC1)[C@@H](O)c1ccc(O)cc1 [Ro25-6981]
activity in the elevated plus maze test [3]: inactive | effect in the marble burying test [4]: modest efficacy

CN1C(=O)CC(=O)N(c2ccccc2)c2cc(Cl)ccc21 [clobazam, reference compound]
time spent in the open arms (wild-type mice; [7]): significantly different from that of vehicle | number of marbles buried (wild type mice; [7]): significantly different from that of vehicle
